What was measured:
shed/soluble BCMA = experiment: GSI inhibition of shed/soluble BCMA (sBCMA), ELISA of supernatants, 72 hours, serial dilutions (Example 2, FIG. 8, Table 3); assay type: cell-based, human; conditions: inhibition of BCMA shedding / enhancement of membrane BCMA
Procedure: Target human cancer cell lines expressing various levels of human BCMA (NCI-H929^[High], MM1S^[Med], U266B1^[low]) were all transduced to constitutively express luciferase, which is used to measure cell viability/survival with the BrightGlo reagent (Promega E2650). Target cells were plated 30,000 cells per well in a 96 well plate (Costar 3904) together with serial dilutions of a panel of gamma secretase inhibitors (Table 2). The plate was incubated at 37° C./5% CO2 for 72 hours, followed by measurements of cell viability (BrightGlo, Promega # E2650) according to vendor protocol. In a replicate set of assay plates, cell culture supernatants were collected by centrifugation and quantified for levels of soluble BCMA by ELISA (R&D Systems, DY193), and the remaining cells were stained with a PE conjugated BCMA antibody (clone 19F2, Biolegend 357504) and analyzed by flow cytometry for BCMA cell surface expression levels.
Raw OD450 values from the BCMA ELISA were plotted together with the mean fluorescent intensity values from flow cytometry analysis of cells stained with anti-BCMA antibody, and are shown for MM1S cells treated with the various GSIs in FIG. 8. Table 3 summarizes the EC50 results of all the GSIs on the three BCMA-expressing cell lines.

[1] = test system: BCMA cell surface expression; experiment: BCMA cell surface expression by flow cytometry (PE conjugated BCMA antibody) with or without GSI treatment (Example 1, FIG. 2); assay type: cell-based, human; conditions: BCMA-expressing multiple myeloma cell lines
Procedure: BCMA expressing cell lines were also treated overnight with and without GSIs. Cell culture supernatants were collected and quantified for levels of soluble BCMA by ELISA (R&D Systems, # DY193). Additionally, remaining cells were pelleted, stained with a PE conjugated BCMA antibody (clone 19F2, Biolegend #357504) and analyzed by flow cytometry for BCMA cell surface expression levels.
BCMA cell surface expression level was determined by flow cytometry on cell lines with or without GSI treatment.

Row | SMILES | efficacious concentrations among the panel of GSIs (rank of potency) (shed/soluble BCMA) | cell surface expression of BCMA [1]
1 | C[C@H](c1ccc(F)cc1CCCC(=O)O)N(c1cc(F)ccc1F)S(=O)(=O)c1ccc(Cl)cc1 [BMS-299897] | least | –
2 | C[C@H](NC(=O)Cc1cc(F)cc(F)c1)C(=O)N[C@H](C(=O)OC(C)(C)C)c1ccccc1 [DAPT] | – | strongly enhances
3 | C[C@H](NC(=O)[C@@H](O)c1cc(F)cc(F)c1)C(=O)N[C@@H]1C(=O)N(C)c2ccccc2-c2ccccc21 [LY-411575, (S)-2-((S)-2-(3,5-difluorophenyl)-2-hydroxyacetamido)-N—((S)-5-methyl-6-oxo-6,7-dihydro-5H-dibenzo[b,d]azepin-7-yl)propanamide] | most potent | strongly enhances
